Measured values published in patent US9668985B2, “Pterosin derivative-containing therapeutic preparation for disease associated with cartilage loss, cartilage degeneration and/or cartilage thinning” (KYOTO UNIVERSITY, priority 2013, dated 2017).
“Also recorded” adds a separate entry of the source. Each block holds one compound with its values, some of them ahead of it.

What was measured:
human chondrocytes [1] = assay: quantitative RT-PCR in pellet-cultured human primary chondrocytes; type: cell-based; settings: 300 μM, pellet culture 2 weeks
Protocol: (§1) Chondrocytes collected from a person with medial compartmental idiopathic osteonecrosis under informed consent were cultured in DMEM (Dulbecco's Modified Eagle's Medium) supplemented with 10% fetal calf serum for 7 days (an image of a 3-day culture is shown in FIG. 5A), and then pelletized by centrifugation (FIG. 5A). The human chondrocyte pellet was cultured in DMEM supplemented with 10% fetal calf serum and 300 μM of the extracted pterosin B for 14 or 28 days. The cell pellet was collected and then stained with safranin O. As a result, it was shown that the staining intensity in the presence of the extracted pterosin B was increased on and after 14 days from the addition of the extracted pterosin B (FIG. 5B). In addition, the mRNA amounts of COL2A1, COL11A2, ACAN, SOX9, COL10A1 and COL1A1 relative to GAPDH in the cell pellet were measured by quantitative RT-PCR. As a result, the mRNA amounts of COL2A1, COL11A2, ACAN and SOX9 were increased by the addition of the […] pterosin B, while the mRNA amounts of COL10A1 and COL1A1 were decreased by the addition of the extracted pterosin B (FIG. 6). […] Therefore, pterosin B is considered to have the effect of promoting hyaline cartilage growth in humans as well.

[2] = test system: mouse primary chondrocytes; assay: quantitative RT-PCR in pellet-cultured mouse primary chondrocytes; type: cell-based; settings: for mRNA amount of Col10a1 relative to Gapdh: cell pellet, 300 μM, 2 or 4 weeks after addition
Protocol: (§2) Primary chondrocytes obtained from the distal femoral epiphyseal cartilage and the proximal tibial epiphyseal cartilage of 1- to 5-day-old mice were pelletized by centrifugation, and to the cell pellet, the extracted pterosin B at a given concentration (0 μM (only DMSO as a vehicle), 100 μM, 200 μM or 300 μM) was added in DMEM supplemented with 10% fetal calf serum. […] In addition, the mRNA amounts of Col2a1, Col10a1 and Sik3 relative to Gapdh in the cell pellet were measured by quantitative RT-PCR. […] Col2a1 is a gene relevant to […], and Col10a1 is a gene indicative of hypertrophic differentiation of chondrocytes.
In the same manner as in Example 1, primary chondrocytes obtained from 1- to 5-day-old mice were pelletized, and to the cell pellet, a pterosin derivative (synthesized pterosin B or pterosin Z) at 300 μM was added in DMEM supplemented with 10% fetal calf serum. At 2 or 4 weeks after the addition, the cell pellet was collected and the mRNA amount of Col10a1 relative to Gapdh was measured by quantitative RT-PCR. As a result, it was shown that Col10a1 was decreased by the addition of pterosin Z as well as the addition of the synthesized pterosin B (FIG. 9).

SIK3 = SIK3 (Homo sapiens, UniProt Q9Y2K2); assay: CRTC2 activity as a measure of SIK3 inhibitory activity; type: cell-based; settings: 150 μM
Sequence of SIK3 (Q9Y2K2 whole entry, species assumed): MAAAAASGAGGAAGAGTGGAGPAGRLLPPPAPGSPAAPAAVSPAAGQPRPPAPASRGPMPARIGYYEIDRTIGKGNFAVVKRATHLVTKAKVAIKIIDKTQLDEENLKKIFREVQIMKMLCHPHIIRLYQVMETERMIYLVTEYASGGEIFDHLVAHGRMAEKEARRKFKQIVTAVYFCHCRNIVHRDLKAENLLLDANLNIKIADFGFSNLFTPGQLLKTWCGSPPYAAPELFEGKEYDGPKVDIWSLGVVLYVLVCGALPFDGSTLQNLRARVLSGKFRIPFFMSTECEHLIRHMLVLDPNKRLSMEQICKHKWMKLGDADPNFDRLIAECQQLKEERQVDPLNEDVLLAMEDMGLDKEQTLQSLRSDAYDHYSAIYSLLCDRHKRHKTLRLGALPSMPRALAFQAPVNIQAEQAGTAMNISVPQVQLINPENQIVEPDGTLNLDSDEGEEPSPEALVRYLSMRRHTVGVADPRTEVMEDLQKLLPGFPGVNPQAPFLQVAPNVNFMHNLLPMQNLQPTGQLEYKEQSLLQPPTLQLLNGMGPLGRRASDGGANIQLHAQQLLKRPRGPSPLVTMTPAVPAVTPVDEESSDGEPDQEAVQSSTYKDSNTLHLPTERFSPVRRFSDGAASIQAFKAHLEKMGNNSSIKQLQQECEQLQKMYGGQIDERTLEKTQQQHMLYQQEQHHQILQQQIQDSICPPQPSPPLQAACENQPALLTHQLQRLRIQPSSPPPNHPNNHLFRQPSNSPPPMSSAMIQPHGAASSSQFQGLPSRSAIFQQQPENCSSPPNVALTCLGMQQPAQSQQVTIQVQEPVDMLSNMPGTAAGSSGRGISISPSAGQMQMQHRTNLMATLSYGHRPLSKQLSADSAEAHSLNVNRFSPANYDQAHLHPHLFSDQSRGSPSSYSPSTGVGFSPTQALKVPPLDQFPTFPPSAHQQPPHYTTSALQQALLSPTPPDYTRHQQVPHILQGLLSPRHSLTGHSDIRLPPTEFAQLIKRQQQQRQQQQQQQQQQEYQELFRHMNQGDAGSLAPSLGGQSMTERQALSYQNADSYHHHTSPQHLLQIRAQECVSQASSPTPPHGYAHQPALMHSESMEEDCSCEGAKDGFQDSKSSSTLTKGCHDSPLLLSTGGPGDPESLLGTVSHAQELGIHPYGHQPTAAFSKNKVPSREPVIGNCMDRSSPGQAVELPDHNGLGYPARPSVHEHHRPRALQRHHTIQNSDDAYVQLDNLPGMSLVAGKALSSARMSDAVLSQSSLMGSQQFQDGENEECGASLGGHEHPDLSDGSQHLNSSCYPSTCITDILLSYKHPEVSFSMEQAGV
Protocol: Comparative evaluation of pterosin derivatives was performed in terms of the inhibitory effect on SIK3 signaling. As a measure of the SIK3 inhibitory activity, the induced activity of the transcription coupling factor CRTC2 (which is also referred to as TORC2, serves as a coupling factor of the transcription factor CREB, and is an inhibition target of SIK3) was measured according to the method described in PCT/JP2012/063709.

[3] = test system: embryonic mouse metatarsal bone; assay: tissue culture of embryonic mouse metatarsal bone, safranin O, BrdU and Col10a1 staining; type: cell-based; settings: 300 μM, 7 days
Protocol: The metatarsal bone was isolated from a mouse embryo of E15.5, and tissue culture of the bone was performed in DMEM supplemented with 10% fetal calf serum. To the culture medium, 300 μM of the extracted pterosin B or the synthesized pterosin B was added, and the culture was further continued. Seven days later, the metatarsal bone was collected and its histological sections were prepared. At 8 hours before the collection of the metatarsal bone, BrdU was added to the culture medium. The histological sections of the metatarsal bone were stained with safranin O and immunostained with an anti-BrdU antibody. As a result, it was shown that, in the presence of the extracted pterosin B or the synthesized pterosin B, the safranin O-stained area and the BrdU-positive cell number were increased (FIGS. 2 and 3). Meanwhile, the number of hypertrophic chondrocytes was decreased in the presence of the extracted pterosin B or the synthesized pterosin B (FIG. 4).

human chondrocytes [4] = assay: safranin O staining of pellet-cultured human primary chondrocytes; type: cell-based; settings: 300 μM, on and after 14 days (14 or 28 days)
Protocol: as §1

[5] = test system: articular cartilage on the medial femoral epicondyle; assay: intra-articular administration into the knee of C57BL/6 mice, articular cartilage histology; type: in vivo, mouse; settings: 3 times a week, 4 weeks
Source text: After the administration was continued for 4 weeks, the knee joint was dissected and then stained with safranin O/fast green/iron hematoxylin.

[6] = test system: mouse primary chondrocytes; assay: safranin O staining of pellet-cultured mouse primary chondrocytes; type: cell-based; settings: cell pellet, 100, 200 or 300 μM, 28 days after addition
Protocol: as §2

[7] = cell pellet, 100, 200 or 300 μM, 28 days

Compound: Cc1cc2c(c(C)c1CCO)C(=O)C(C)C2 (stereo not shown) [synthesized pterosin B, pterosin B]
- mRNA amount of ACAN relative to GAPDH (human chondrocytes [1]): increased
- mRNA amount of COL2A1 relative to GAPDH (human chondrocytes [1]): increased
- mRNA amount of COL11A2 relative to GAPDH (human chondrocytes [1]): increased
- mRNA amount of SOX9 relative to GAPDH (human chondrocytes [1]): increased
- mRNA amount of Col10a1 relative to Gapdh [2]: decreased

- SIK3 inhibitory activity (induced activity of CRTC2) (SIK3): highly active than pterosin B
Compound: Cc1c(O)c2c(c(C)c1CCO)C(=O)C(C)(C)C2 [onitin]

Compound: Cc1cc2c(c(C)c1CCO)C(=O)C(C)C2 (stereo not shown) [extracted pterosin B, pterosin B]
- number of hypertrophic chondrocytes [3]: decreased
- safranin O-stained area [3]: increased
- BrdU-positive cell number ([3]; BrdU 8 hours before collection): increased
- safranin O staining intensity (human chondrocytes [4]): increased
- mRNA amount of COL1A1 relative to GAPDH (human chondrocytes [1]): decreased
- mRNA amount of COL10A1 relative to GAPDH (human chondrocytes [1]): decreased
- amount of Col2a1 mRNA relative to Gapdh [2, 7]: increased with increasing concentration
- amount of Col10a1 mRNA relative to Gapdh [2, 7]: decreased with increasing concentration
- Findings of medial femoral epicondyle ([5]; 300 μM into left knee articular cavity, one line per mouse (No. 4-7)): No apparent abnormalities; also recorded: Moderate osteoarthritis
- Findings of medial femoral epicondyle ([5]; 900 μM into left knee articular cavity, one line per mouse (No. 8-11)): No apparent abnormalities; also recorded: Moderate osteoarthritis
- safranin O staining intensity [6]: increased with increasing concentration

- SIK3 inhibitory activity (induced activity of CRTC2) (SIK3): highly active than pterosin B
Compound: COCCc1c(C)cc2c(c1C)C(=O)C(OC)C2 (stereo not shown) [14-O-methyl-pterosin G, 14-O-methylpterosin G]

- SIK3 inhibitory activity (induced activity of CRTC2) (SIK3): highly active than pterosin B
Compound: COCCc1c(C)cc2c(c1C)C(=O)C(C)(C)C2 [pterosin I]

Compound: Cc1cc2c(c(C)c1CCO)C(=O)C(C)C2 (stereo not shown) [pterosin B]
- area of the articular cartilage on the medial femoral epicondyle ([5]; 300 μM or 900 μM intra-articular): increased with increasing concentration
- SIK3 inhibitory activity (induced activity of CRTC2) (SIK3): slightly inhibit

Compound: Cc1c(O)c2c(c(C)c1CCCl)C(=O)C(C)(C)C2 [14-chloro-onitin, 14-deoxy-14-chloroonitin]
- SIK3 inhibitory activity (induced activity of CRTC2) (SIK3): highly active than pterosin B

- SIK3 inhibitory activity (induced activity of CRTC2) (SIK3): highly active than pterosin B
Compound: COCCc1c(C)c(O)c2c(c1C)C(=O)C(C)(C)C2 [14-O-methyl-onitin, 14-O-methylonitin]

Compound: Cc1cc2c(c(C)c1CCO)C(=O)C(C)(C)C2 [pterosin Z]
- mRNA amount of Col10a1 relative to Gapdh [2]: decreased
- SIK3 inhibitory activity (induced activity of CRTC2) (SIK3): highly active than pterosin B
